Test results from US7220764B2, “Sphingosine kinase inhibitors” (The Pennsylvania State University Research Foundation, priority 2002, dated 2007).
Where a name gives a salt, the structure may show the parent alone. Read-outs that look alike come from different tables or passages of the source.

Assays:
recombinant human SK = molecular target: T1, recombinant human SK (Homo sapiens, UniProt Q9NYA1); assay: Sphingosine kinase screen / inhibition of recombinant human SK ([3H]sphingosine to [3H]S1P); assay type: biochemical; settings: for IC50: mean ± SD of triplicate experiments, read-out: SK, concentration required to inhibit enzyme activity by 50%; for inhibition at 5 µg/mL: read-out: inhibited SK activity by %
T1 construct: glutathione-S-transferase (GST); made in house; host or cells: bacteria (PGEX bacterial expression vector, Pharmacia)
Procedure: This method involved incubating [^3H]sphingosine with 1 mM ATP under conditions defined in the reference, followed by extraction of the assay mixture with chloroform:methanol (2:1) under basic conditions. […] Radioactivity in aliquots of the aqueous phase was then quantified as a measure of [^3H]S1P formation.
Varying concentrations of the indicated compounds were evaluated for inhibition of recombinant human SK as described above.

ERK2 = ERK2 (Homo sapiens, UniProt P28482); assay: Kinase selectivity panel: ERK2; assay type: biochemical; settings: for IC50: human isoform, mean ± SD of triplicate experiments, read-out: ERK2, concentration required to inhibit enzyme activity by 50%
Procedure: (§1) Thus potencies of each inhibitor were determined for human isoforms of ERK2, PI3K and PKCα. SK inhibition data is provided for comparison. Data represent the concentrations required to inhibit enzyme activity by 50%, and are the mean ±SD of triplicate experiments. Results designated as “None” indicate that no inhibition was detected at concentrations up to 60 μM.

PI3K = molecular target: T2, PI3K; assay: Kinase selectivity panel: PI3K (lipid kinase); assay type: biochemical, human; settings: for IC50: human isoform, mean ± SD of triplicate experiments, read-out: PI3K, concentration required to inhibit enzyme activity by 50%
T2 construct: other: human isoform; mean ± SD of triplicate experimen; activity toward PI3K (in words)
Procedure: Thus potencies of each inhibitor were determined for human isoforms of ERK2, PI3K and PKCα. […] Data represent the concentrations required to inhibit enzyme activity by 50%, and are the mean ±SD of triplicate experiments. Results designated as “None” indicate that no inhibition was detected at concentrations up to 60 μM.

PKCα = PKCα (Homo sapiens, UniProt P17252); assay: Kinase selectivity panel: PKCα; assay type: biochemical; settings: for IC50: human isoform, mean ± SD of triplicate experiments, read-out: PKCα, concentration required to inhibit enzyme activity by 50%
Procedure: as §1

[1] = tested on: T-24 human bladder carcinoma cells; assay: Cytotoxicity, SRB binding assay, T24; assay type: cell-based; settings: 48 h treatment, mean ± SD
Procedure: (§2) The SK inhibitor compounds of the invention are antiproliferative and induce apoptosis in replicating cells. In order to assess the compounds' efficacy in intact cells, the compounds were evaluated for cytotoxicity using a panel of human cancer cell lines. These experiments followed methods that have been extensively used (see for, example, Smith et al., Cancer Res. 54: 3779–3784 (1994); Smith et al., Oncology Res. 6: 211–218 (1994); and Lawrence et al., J. Med. Chem. 44: 594–601 (2001). Cell lines tested included T-24 human bladder carcinoma cells, MCF-7 human breast adenocarcinoma cells, MCF-7/VP cells, which are a subline of MCF-7 cells that is resistant to several anticancer drugs due to overexpression of the transport protein MRP 1, and NCI/ADR, a cell line resistant to many anticancer drugs due to overexpression of the drug transporter P-glycoprotein.
(§3) The indicated cell lines were treated with varying doses of compounds 1–4 for 48 h. Cell survival was then determined using the SRB binding assay (Skehan et al., 1990, J. Natl. Cancer Inst. 82: 1107–1112), and the concentration of compound that inhibited proliferation by 50% was calculated. Values represent the mean ±SD for replicate samples.
(§4) As these transporters are often overexpressed in tumor cells, particularly after the patient has been treated with cytotoxic drugs, the SK inhibiting compounds of the invention are effective therapeutic agents for resistant tumors.

[2] = tested on: MCF-7 human breast adenocarcinoma cells; assay: Cytotoxicity, SRB binding assay, MCF-7; assay type: cell-based; settings: MCF7, 48 h treatment, mean ± SD
Procedure: as §2, §3, §4

[3] = tested on: NCI/ADR cells (P-glycoprotein overexpression); assay: Cytotoxicity, SRB binding assay, NCI/ADR; assay type: cell-based; settings: Homo sapiens, NCI/ADR-RES, 48 h treatment, mean ± SD
Procedure: as §2, §3, §4

[4] = tested on: MCF-7/VP cells (MRP 1 overexpression); assay: Cytotoxicity, SRB binding assay, MCF-7/VP; assay type: cell-based; settings: Homo sapiens, MCF7-VP, 48 h treatment, mean ± SD
Procedure: as §2, §3, §4

[5] = tested on: mouse JC mammary adenocarcinoma cells; assay: Antitumor activity in syngeneic tumor model; assay type: in vivo, Balb/c mice; settings: 75 mg/kg intraperitoneally on days 1, 5, 9 and 15
Procedure: These cells express elevated levels of SK activity relative to non-transformed cells, as well as the multidrug resistance phenotype due to P-glycoprotein activity (data not shown). Balb/c mice, 6–8 weeks old, were injected subcutaneously with […] suspended in PBS. […] The insert indicates the body weight of the animals during this experiment.

[6] = 5 μg/ml of compound (corresponds to 10–25 μM), 1 mM ATP

T1 sequence (Q9NYA1 whole entry): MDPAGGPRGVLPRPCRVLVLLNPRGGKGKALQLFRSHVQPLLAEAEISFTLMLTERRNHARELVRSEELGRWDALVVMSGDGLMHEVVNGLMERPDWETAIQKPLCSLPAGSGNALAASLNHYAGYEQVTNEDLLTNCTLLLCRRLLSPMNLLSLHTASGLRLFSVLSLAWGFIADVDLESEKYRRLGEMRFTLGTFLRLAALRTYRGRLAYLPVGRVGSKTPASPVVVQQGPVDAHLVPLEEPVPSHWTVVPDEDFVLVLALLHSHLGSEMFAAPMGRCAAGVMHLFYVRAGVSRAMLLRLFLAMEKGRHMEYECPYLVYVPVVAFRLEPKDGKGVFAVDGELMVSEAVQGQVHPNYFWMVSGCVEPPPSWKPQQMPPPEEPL
Sequence of ERK2 (P28482 whole entry, canonical isoform): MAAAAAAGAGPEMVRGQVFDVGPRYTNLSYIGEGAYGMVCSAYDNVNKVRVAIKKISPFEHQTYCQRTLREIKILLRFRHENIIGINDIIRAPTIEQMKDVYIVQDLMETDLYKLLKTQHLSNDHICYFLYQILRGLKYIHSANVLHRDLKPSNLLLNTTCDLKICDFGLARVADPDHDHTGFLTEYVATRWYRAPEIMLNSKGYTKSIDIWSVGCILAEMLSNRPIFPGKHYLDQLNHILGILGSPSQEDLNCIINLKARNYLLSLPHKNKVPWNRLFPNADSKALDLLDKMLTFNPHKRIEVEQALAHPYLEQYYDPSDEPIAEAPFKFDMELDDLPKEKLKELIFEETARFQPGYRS

O=C(N/N=C/c1c(O)ccc2ccccc12)c1cc(-c2ccc3ccccc3c2)n[nH]1 [Compound 2, 5-Naphthalen-2-yl-2H-pyrazole-3-carboxylic acid (2-hydroxy-naphthalen-1-ylmethylene)-hydrazide]
IC50 (recombinant human SK): 1.2 ± 0.3 µM | inhibition at 5 µg/mL (recombinant human SK): 85% | fold less potent toward ERK2 than SK (ERK2; ERK2 versus SK): 10 fold | IC50 (ERK2): 11 ± 1 µM | IC50 (PI3K): > 60 µM | IC50 (PKCα): > 60 µM | IC50 [1]: 1.1 ± 1.2 µM | IC50 [2]: 0.4 µM | IC50 [3]: 0.8 ± 1.3 µM | IC50 [4]: 2.9 ± 2 µM

CCCCCCCCCCCCC/C=C/[C@@H](O)[C@H](CO)N(C)C [dimethylsphingosine, reference compound]
inhibition of SK activity by positive control (recombinant human SK; at concentrations above 25 μM): completely inhibited

O=C1/C(=C/c2ccc(O)c(O)c2)Sc2ccccc21 [Compound 4, 2-(3,4-Dihydroxy-benzylidene)-benzo [b] thiophen-3-one]
inhibition at 5 µg/mL (recombinant human SK; [6]): 89% | IC50 (recombinant human SK): 0.6 ± 0.1 µM | activity toward ERK2 (in words) (ERK2): weak activity | IC50 (ERK2): 40 ± 5 µM | activity toward PI3K (in words) (PI3K): moderate activity | IC50 (PI3K): 7 ± 2 µM | IC50 (PKCα): > 60 µM | IC50 [1]: 7.8 ± 2 µM | IC50 [2]: 1 ± 1.7 µM | IC50 [3]: 1.2 ± 2.4 µM | IC50 [4]: 1.8 ± 1.1 µM

Cc1cc2nc3s/c(=C\c4cc(I)cc(I)c4O)c(=O)n3c2cc1C [Compound 8, 2-(2-Hydroxy-3,5-diiodo-benzylidene)-6,7-dimethyl-benzo[4,5] imidazo [2,1-b] thiazol-3-one]
inhibition at 5 µg/mL (recombinant human SK; [6]): 98%

CCc1cc2c(s1)[S][Zn]1([N]=C2)[N]=Cc2cc(CC)sc2[S]1 [Compound 12]
inhibition at 5 µg/mL (recombinant human SK): 87%

O=C1/C(=C/c2ccc(O)c(O)c2)Oc2ccccc21 [Compound 5, 2-(3,4-Dihydroxy-benzylidene)-benzofuran-3-one]
activity toward ERK2 (in words) (ERK2): weak activity | IC50 (ERK2): 80 ± 4 µM | activity toward PI3K (in words) (PI3K): moderate activity | IC50 (PKCα): > 60 µM | difference in body weights versus control group [5]: No significant difference | tumor growth decreased versus control animals ([5]; day 18, volume relative to day 1): > 50%

O=S(=O)(c1ccc(O)cc1)c1ccc(O)c(C23CC4CC(CC(C4)C2)C3)c1 [Compound 7, 2-(1-adamantyl)-4-[(4-oxidophenyl)sulfonyl]benzenolate disodium salt]
inhibition at 5 µg/mL (recombinant human SK; [6]): 91%

CCOc1ccc2c(c1)NC(C)(C)c1ss/c(=N/c3ccc(O)cc3)c1-2 [Compound 10, 4-(7-Ethoxy-4,4-dimethyl-4,5-dihydro-2,3-dithia-5-aza-cyclopenta [α]naphthalen-1-ylideneamino)-phenol]
inhibition at 5 µg/mL (recombinant human SK; [6]): 81%

COc1ccc(N2C(=O)/C(=C\c3ccc(O)cc3O)SC2=S)cc1 [Compound 1, 5-(2,4-Dihydroxy-benzylidene)-3-(4-methoxy-phenyl)-2-thioxo-thiazolidin-4-one]
inhibition at 5 µg/mL (recombinant human SK; [6]): 99% | IC50 (recombinant human SK): 2.5 ± 0.7 µM | IC50 (ERK2): 26 ± 2 µM | IC50 (PI3K): 42 ± 10 µM | IC50 (PKCα): > 60 µM | IC50 [1]: 5.8 ± 1.5 µM | IC50 [2]: 6.8 ± 1.5 µM | IC50 [3]: 6.2 ± 1.5 µM | IC50 [4]: 24.6 ± 1.9 µM

O=C(/C=C(O)/C(O)=C/C(=O)c1ccccc1)c1ccccc1 [Compound 11, 3,4 -Dihydroxy-1,6-diphenyl-hexa-2,4-diene-1,6-dione]
inhibition at 5 µg/mL (recombinant human SK; [6]): 98%

COc1ccc(-n2c(SCC(=O)Nc3nc4ccccc4s3)nc(O)cc2=O)cc1 [Compound 6, N-Benzothiazol-2-yl-2-[4-hydroxy-1-(4-methoxy-phenyl)-6-oxo-1,6-dihydro-pyrimidin-2-ylsulfanyl]-acetamide]
inhibition at 5 µg/mL (recombinant human SK; [6]): 91%

N#C/C(=C\c1ccc(O)c(O)c1)c1nc(-c2ccc3c(c2)OCO3)cs1 [Compound 9, 2-(4-Benzo[1,3]dioxol-5-yl-thiazol-2-yl)-3-(3,4-dihydroxy-phenyl)-acrylonitrile]
inhibition at 5 µg/mL (recombinant human SK; [6]): 94%

Oc1ccc(Nc2nc(-c3ccc(Cl)cc3)cs2)cc1 [Compound 3, 4-[4-(4-Chloro-phenyl)-thiazol-2-ylamino]-phenol]
inhibition at 5 µg/mL (recombinant human SK; [6]): 99% | activity toward ERK2 (in words) (ERK2): no inhibition was seen | IC50 (ERK2): > 60 µM | activity toward PI3K (in words) (PI3K): no inhibition was seen | IC50 (PI3K): > 60 µM | inhibition of PKCα (in words) (PKCα): no inhibition was seen | IC50 (PKCα): > 60 µM | IC50 [1]: 4.6 ± 1.6 µM | IC50 [2]: 1.2 ± 1.3 µM | IC50 [3]: 1.3 ± 1.1 µM | IC50 [4]: 0.9 ± 1.8 µM
